US7786054B2, “Biocide for well stimulation and treatment fluids” (Kemira Chemicals, Inc., priority 2006, dated 2010)
“Also recorded” adds a separate entry of the source.

How the values were obtained:
[1] = Effect of biocide on the oxygen scavenger (oxygen reduction potential); format: physicochemical; details: 500 ppm biocide; 120 ppm SMBS; pH 6.4; FIG. 5
Procedure: In the following examples, an in-house constructed Inversion Loop was modified with a Grace M3500 viscometer for periodically measuring fluid viscosity as a function of time. The ORP apparatus included a HACH sensION pH meter with a combination ORP electrode. In Example 7, a friction loop apparatus was employed
To a beaker containing 500 milliliters of deionized water, a 120 ppm dose of sodium metabisulfite (SMBS) was added and the pH and oxygen reduction potential (ORP) were recorded. Once stabilized, phosphate buffer was added to increase the pH to 6.4 and the ORP recorded. Finally, the particular biocide tested was added at a concentration of 500 ppm. The ORP was recorded initially and after a period of 10 minutes.

[2] = tested on: sulfate reducing bacteria (SRB); experiment: Biocidal effectiveness on sulfate reducing bacteria in spiked frac pond water, serial dilution counts over 180 days with challenges; format: cell-based; details: for control of SRB in frac pond water (summary in words): up to 180 days contact time, challenges at 14, 28 and 129 days
Procedure: (§1) In this example, the biocidal effectiveness on sulfate reducing bacteria (SRB) and acid producing bacteria (AB) for biocide formulations containing CB Thione and WB Thione to Glut and THPS was examined.
(§2) A one gallon sample was separated from a five gallon sample of frac pond water for these studies. The frac pond water sample included SRB and AB. Ten mL of a 10^9 cfu/mL inoculum of SRB grown in anaerobic API broth containing an O2 scavenger and 10 mL of a 10^9 cfu/mL inoculum of AB grown in anaerobic phenol red (anPR) broth containing an O2 scavenger were added to the one gallon frac pond water sample, mixed well and allowed to incubate for a period of time sufficient to achieve a desired number of SRB and AB. All broth media for inoculum and serial dilution counts in this study was made at 4% salinity to match the salinity of the original frac pond water measured by total dissolved solids testing. To increase nutrient value and to emulate on-site friction reducing additives, a 30 weight % acrylic acid, 70% acrylamide copolymer was added to the inoculated gallon of frac pond water sample at 300 ppm and then referred to as the spiked frac pond water sample. The spiked sample was then divided into 99.0 g aliquots for testing the effect of various biocides at various concentrations on the SRB and AB over a 180 day contact time. One spiked aliquot would serve as the control sample to which no biocide would be added. Challenges were made to all aliquots using 0.5 mL of 10^8 SRB and 0.5 mL, of 10^8 AB at 14, 28, and 129 days contact time.
(§3) The biocides included a 20% water based Thione (WB Thione), a 24% caustic based Thione (CB Thione), a 25% Glut, and a 35% THPS. Stock biocide solutions of various concentrations were made from these biocides as described below.
(§4) The WB Thione stock solutions were prepared by adding 3.0 g of the biocide to 17.0 g of sterile distilled water to form an intermediate solution, followed by combining each intermediate solution with water in the accounts shown in Table 1 below to make the descending concentrations as shown in Table 1.
as §4, with “The CB” for “The WB”, “the amounts” for “the accounts”, “Table 2” for “Table 1”, “Table 2.” for “Table 1.”
(§5) The Glut stock solutions were prepared by adding 1.0 g biocide to 19.0 g of sterile distilled water to form an intermediate solution, followed by combining each intermediate solution with water in the amounts shown in Table 3 below to make the descending concentrations as shown in Table 3.
(§6) The THPS stock solutions were prepared by adding 1.0 g of the biocide to 19.0 g of sterile distilled water to form an intermediate solution, followed by combining each intermediate solution with water in the amounts shown in Table 4 below to make the descending concentrations as shown in Table 4.
(§7) Next, 1 g of each biocide stock solution was added to the appropriately labeled 99.0 g aliquot. Also, 1.0 g of sterile water was added to the control aliquot. The concentrations of the biocides present in each aliquot are provided below in Table 5.
(§8) The aliquots were then incubated at room temperature in the dark for the entire study, i.e., 6 months. […] Using sterile syringes, this testing was performed by serial diluting the aliquots into sealed 9.0 mL anaerobic API broth and anaerobic PR broth bottles, both media containing an O2 scavenger, in the appropriate labeled set of SRB bottles (6 for each aliquot) mid AB bottles (6 for each aliquot) until a color change occurred, indicating the log quantity of organisms present in each aliquot.

[3] = tested on: acid producing bacteria (AB); experiment: Biocidal effectiveness on acid producing bacteria in spiked frac pond water, serial dilution counts over 180 days with challenges; format: cell-based; details: for control of AB in frac pond water (summary in words): up to 180 days contact time, challenges at 14, 28 and 129 days
Procedure: as §1, §2, §3, §4
as §4, with “The CB” for “The WB”, “the amounts” for “the accounts”, “Table 2” for “Table 1”, “Table 2.” for “Table 1.”
as §5, §6, §7, §8

[4] = 500 ppm as is (Glut, THPS), 7 Days
[5] = 500 ppm as is (Glut, THPS), 14 Days
[6] = 500 ppm as is (Glut, THPS), 21 Days
[7] = 500 ppm as is (Glut, THPS), 28 Days
[8] = 500 ppm as is (Glut, THPS), 35 Days
[9] = 500 ppm as is (Glut, THPS), 42 Days
[10] = 500 ppm as is (Glut, THPS), 58 Days
[11] = 500 ppm as is (Glut, THPS), 90 Days

## O=CCCCC=O [Glut, glutaraldehyde]
[1]
  ORP after 10 minutes of residence time: increases nearly to the level of the DI H2O alone
  ORP response upon initial addition of biocide: does not significantly impact ORP
[2]; 50 ppm as is, 7 Days
  Log 10 Anaerobic Sulfate Reducing Bacteria/mL: 0 Log 10 Bacteria/mL
[2]; 50 ppm as is, 14 Days
  Log 10 Anaerobic Sulfate Reducing Bacteria/mL: 0 Log 10 Bacteria/mL
[2]; 50 ppm as is, 21 Days
  Log 10 Anaerobic Sulfate Reducing Bacteria/mL: 0 Log 10 Bacteria/mL
[2]; 50 ppm as is, 28 Days
  Log 10 Anaerobic Sulfate Reducing Bacteria/mL: 0 Log 10 Bacteria/mL
[2]; 50 ppm as is, 35 Days
  Log 10 Anaerobic Sulfate Reducing Bacteria/mL: ≧3 Log 10 Bacteria/mL
[2]; 50 ppm as is, 42 Days
  Log 10 Anaerobic Sulfate Reducing Bacteria/mL: ≧6 Log 10 Bacteria/mL
[2]; 50 ppm as is, 58 Days
  Log 10 Anaerobic Sulfate Reducing Bacteria/mL: ≧6 Log 10 Bacteria/mL
[2]; 50 ppm as is, 90 Days
  Log 10 Anaerobic Sulfate Reducing Bacteria/mL: ≧5 Log 10 Bacteria/mL
[2]; 100 ppm as is, 7 Days
  Log 10 Anaerobic Sulfate Reducing Bacteria/mL: 0 Log 10 Bacteria/mL
[2]; 100 ppm as is, 14 Days
  Log 10 Anaerobic Sulfate Reducing Bacteria/mL: 0 Log 10 Bacteria/mL
[2]; 100 ppm as is, 21 Days
  Log 10 Anaerobic Sulfate Reducing Bacteria/mL: 0 Log 10 Bacteria/mL
[2]; 100 ppm as is, 28 Days
  Log 10 Anaerobic Sulfate Reducing Bacteria/mL: 0 Log 10 Bacteria/mL
[2]; 100 ppm as is, 35 Days
  Log 10 Anaerobic Sulfate Reducing Bacteria/mL: ≧3 Log 10 Bacteria/mL
[2]; 100 ppm as is, 42 Days
  Log 10 Anaerobic Sulfate Reducing Bacteria/mL: ≧6 Log 10 Bacteria/mL
[2]; 100 ppm as is, 58 Days
  Log 10 Anaerobic Sulfate Reducing Bacteria/mL: ≧5 Log 10 Bacteria/mL
[2]; 100 ppm as is, 90 Days
  Log 10 Anaerobic Sulfate Reducing Bacteria/mL: ≧5 Log 10 Bacteria/mL
[2]; 200 ppm as is, 7 Days
  Log 10 Anaerobic Sulfate Reducing Bacteria/mL: 0 Log 10 Bacteria/mL
[2]; 200 ppm as is, 14 Days
  Log 10 Anaerobic Sulfate Reducing Bacteria/mL: 0 Log 10 Bacteria/mL
[2]; 200 ppm as is, 21 Days
  Log 10 Anaerobic Sulfate Reducing Bacteria/mL: 0 Log 10 Bacteria/mL
[2]; 200 ppm as is, 28 Days
  Log 10 Anaerobic Sulfate Reducing Bacteria/mL: 0 Log 10 Bacteria/mL
[2]; 200 ppm as is, 35 Days
  Log 10 Anaerobic Sulfate Reducing Bacteria/mL: ≧3 Log 10 Bacteria/mL
[2]; 200 ppm as is, 42 Days
  Log 10 Anaerobic Sulfate Reducing Bacteria/mL: ≧6 Log 10 Bacteria/mL
[2]; 200 ppm as is, 58 Days
  Log 10 Anaerobic Sulfate Reducing Bacteria/mL: ≧6 Log 10 Bacteria/mL
[2]; 200 ppm as is, 90 Days
  Log 10 Anaerobic Sulfate Reducing Bacteria/mL: ≧6 Log 10 Bacteria/mL
[2]; [4]
  Log 10 Anaerobic Sulfate Reducing Bacteria/mL: 0 Log 10 Bacteria/mL
[2]; [5]
  Log 10 Anaerobic Sulfate Reducing Bacteria/mL: 0 Log 10 Bacteria/mL
[2]; [6]
  Log 10 Anaerobic Sulfate Reducing Bacteria/mL: 0 Log 10 Bacteria/mL
[2]; [7]
  Log 10 Anaerobic Sulfate Reducing Bacteria/mL: 0 Log 10 Bacteria/mL
[2]; [8]
  Log 10 Anaerobic Sulfate Reducing Bacteria/mL: ≧3 Log 10 Bacteria/mL
[2]; [9]
  Log 10 Anaerobic Sulfate Reducing Bacteria/mL: 5 Log 10 Bacteria/mL
[2]; [10]
  Log 10 Anaerobic Sulfate Reducing Bacteria/mL: ≧6 Log 10 Bacteria/mL
[2]; [11]
  Log 10 Anaerobic Sulfate Reducing Bacteria/mL: ≧6 Log 10 Bacteria/mL
[2]
  control of SRB in frac pond water (summary in words): lost all control of SRB and AB after the 2nd challenge on day 28; also recorded: failed completely at all concentrations after challenging twice at 14 and 28 days contact time
[3]; 50 ppm as is, 7 Days
  Log 10 Anaerobic Acid Producing Bacteria/mL: 0 Log 10 Bacteria/mL
[3]; 50 ppm as is, 14 Days
  Log 10 Anaerobic Acid Producing Bacteria/mL: 0 Log 10 Bacteria/mL
[3]; 50 ppm as is, 21 Days
  Log 10 Anaerobic Acid Producing Bacteria/mL: 1 Log 10 Bacteria/mL
[3]; 50 ppm as is, 28 Days
  Log 10 Anaerobic Acid Producing Bacteria/mL: 0 Log 10 Bacteria/mL
[3]; 50 ppm as is, 35 Days
  Log 10 Anaerobic Acid Producing Bacteria/mL: ≧3 Log 10 Bacteria/mL
[3]; 50 ppm as is, 42 Days
  Log 10 Anaerobic Acid Producing Bacteria/mL: ≧6 Log 10 Bacteria/mL
[3]; 50 ppm as is, 58 Days
  Log 10 Anaerobic Acid Producing Bacteria/mL: ≧6 Log 10 Bacteria/mL
[3]; 50 ppm as is, 90 Days
  Log 10 Anaerobic Acid Producing Bacteria/mL: ≧5 Log 10 Bacteria/mL
[3]; 100 ppm as is, 7 Days
  Log 10 Anaerobic Acid Producing Bacteria/mL: 0 Log 10 Bacteria/mL
[3]; 100 ppm as is, 14 Days
  Log 10 Anaerobic Acid Producing Bacteria/mL: 0 Log 10 Bacteria/mL
[3]; 100 ppm as is, 21 Days
  Log 10 Anaerobic Acid Producing Bacteria/mL: 0 Log 10 Bacteria/mL
[3]; 100 ppm as is, 28 Days
  Log 10 Anaerobic Acid Producing Bacteria/mL: 0 Log 10 Bacteria/mL
[3]; 100 ppm as is, 35 Days
  Log 10 Anaerobic Acid Producing Bacteria/mL: ≧3 Log 10 Bacteria/mL
[3]; 100 ppm as is, 42 Days
  Log 10 Anaerobic Acid Producing Bacteria/mL: ≧6 Log 10 Bacteria/mL
[3]; 100 ppm as is, 58 Days
  Log 10 Anaerobic Acid Producing Bacteria/mL: ≧6 Log 10 Bacteria/mL
[3]; 100 ppm as is, 90 Days
  Log 10 Anaerobic Acid Producing Bacteria/mL: ≧6 Log 10 Bacteria/mL
[3]; 200 ppm as is, 7 Days
  Log 10 Anaerobic Acid Producing Bacteria/mL: 0 Log 10 Bacteria/mL
[3]; 200 ppm as is, 14 Days
  Log 10 Anaerobic Acid Producing Bacteria/mL: 1 Log 10 Bacteria/mL
[3]; 200 ppm as is, 21 Days
  Log 10 Anaerobic Acid Producing Bacteria/mL: 0 Log 10 Bacteria/mL
[3]; 200 ppm as is, 28 Days
  Log 10 Anaerobic Acid Producing Bacteria/mL: 0 Log 10 Bacteria/mL
[3]; 200 ppm as is, 35 Days
  Log 10 Anaerobic Acid Producing Bacteria/mL: ≧3 Log 10 Bacteria/mL
[3]; 200 ppm as is, 42 Days
  Log 10 Anaerobic Acid Producing Bacteria/mL: ≧5 Log 10 Bacteria/mL
[3]; 200 ppm as is, 58 Days
  Log 10 Anaerobic Acid Producing Bacteria/mL: ≧6 Log 10 Bacteria/mL
[3]; 200 ppm as is, 90 Days
  Log 10 Anaerobic Acid Producing Bacteria/mL: ≧6 Log 10 Bacteria/mL
[3]; [4]
  Log 10 Anaerobic Acid Producing Bacteria/mL: 0 Log 10 Bacteria/mL
[3]; [5]
  Log 10 Anaerobic Acid Producing Bacteria/mL: 0 Log 10 Bacteria/mL
[3]; [6]
  Log 10 Anaerobic Acid Producing Bacteria/mL: 0 Log 10 Bacteria/mL
[3]; [7]
  Log 10 Anaerobic Acid Producing Bacteria/mL: 0 Log 10 Bacteria/mL
[3]; [8]
  Log 10 Anaerobic Acid Producing Bacteria/mL: ≧3 Log 10 Bacteria/mL
[3]; [9]
  Log 10 Anaerobic Acid Producing Bacteria/mL: 4 Log 10 Bacteria/mL
[3]; [10]
  Log 10 Anaerobic Acid Producing Bacteria/mL: ≧6 Log 10 Bacteria/mL
[3]; [11]
  Log 10 Anaerobic Acid Producing Bacteria/mL: ≧6 Log 10 Bacteria/mL
[3]
  control of AB in frac pond water (summary in words): lost all control of SRB and AB after the 2nd challenge on day 28

## CN1CSC(=S)N(C)C1 [Thione, 3,5-dimethyl-1,3,5-thiadiazinane-2-thione]
[2]
  control of SRB in frac pond water (summary in words): much more effective at inhibiting SRB and AB growth in frac water than the Glut and THPS treatments; also recorded: exceptional control over both the short and long term for SRB through 3 substantial challenges
[3]
  control of AB in frac pond water (summary in words): much more effective at inhibiting SRB and AB growth in frac water than the Glut and THPS treatments
